Results as given in patent publication US10220051B2, “Combination of DNA repair inhibition with bendamustine or gemcitabine in the treatment of cancer” (Institute for Cancer Research, priority 2012, dated 2019).
“Also recorded” adds a separate entry of the source.

What was measured:
Type in all cases: cell-based
[1] = test system: mouse embryonic fibroblasts (WT and TDG−/−); assay: γ-H2AX immunofluorescence in WT and TDG−/− MEFs
Protocol: (§1) Immunofluorescence. Cells were grown on coverslips, treated with the indicated drugs, fixed and stained. To detect DNA damage induction and repair, antibodies against 53BP1 (Bethyl) and γ-H2AX (Upstate) were used with Alexa Fluor-conjugated secondary antibodies (Invitrogen). All cells were counter-stained with DAPI (Molecular probes). Images were captured using a 40× or 100× objective mounted on an inverted microscope (Eclipse TE2000S; Nikon) with a CCD camera (Photometrics Cascade 512F; Roper Scientific) powered by NIS Elements AR (version 3.10) software (Nikon). For quantitative analysis, individual nuclei were identified using DAPI staining and used to define region of interests (ROI), which were then transposed onto other channels. The sum intensity per nuclei from a minimum of 50 nuclei was averaged±SEM.

[2] = test system: U2932 B cell lymphoma cells; assay: Cell cycle profile by FACS, U2932
Protocol: (§2) DNA content analysis via flow cytometry. Following indicated drug treatments, cells were fixed with 70% ethanol. For analysis, cells were stained with propidium iodide, RNase A and sodium citrate. Cells were incubated at 37° C. for 30 minutes before being analyzed using a Becton Dickinson single laser three-fluorescence FACScan flow analyzer and Cell Quest software (Becton Dickinson). DNA content was acquired from 10,000 events and FlowJo software was used to process the data.

Hela cells [3] = assay: Chk1 phosphorylation (Ser-345) in lysates
Protocol: Hela cells were treated for 24 or 48 h continuous treatment or of either 50 or 200 μM BDM or 24 h followed by 24 h in the absence of drugs. […] Quantification of the average fluorescence per nucleus is shown on the right. For γ-H2AX: *P=8.9×10^−28 vs. untreated 24 h; **P=2.1×10^−31 vs. untreated 24 h; †P=5.2×10^−45 vs. untreated 48 h. For 53BP1: *P=4.3×10^−20 vs. untreated 24 h; **P=4.2×10^−41 vs. untreated 24 h; †P=2.0×10^−52 vs. untreated 48 h. For RPA: *P=2.5×10^−16 vs. untreated 24 h; **P=2.8×10^−52 vs. untreated 24 h; †P=3.3×10-^58 vs. untreated 48 h. […] Total Chk1 and alpha tubulin were used to determine loading.

[4] = test system: PANC1, BXPC3, MCF-7, MDA-MB-435, OVCAR 5 and 10 cells; assay: Cell cycle profile by FACS, panel of cancer cell lines; conditions: 24 h
Protocol: as §2

Hela cells [5] = assay: Immunofluorescence of DNA damage foci (γ-H2AX, 53BP1, RPA)
Protocol: as §1

Hela cells [6] = assay: EdU incorporation (DNA synthesis); conditions: EdU 10 μM, 12 h
Protocol: EdU incorporation. Hela cells were treated with nocodazole for 14 h after which time mitotic cells were collected by mechanical shake-off. Cells were washed twice with medium and re-plated. BDM and EdU (10 μM) (Click-IT™ EdU imaging kit, Invitrogen) were added 2 h later, when the cells were fully adherent and still in G1, and incubated for an additional 12 h. Cells were fixed and stained according to the manufacturer's protocol. Quantification of EdU incorporation was performed as described for antibody detection.

Hela cells [7] = assay: Clonogenic assay, Hela; conditions: for colony formation relative to control (100%): washout, ~10 days
Protocol: Clonogenic assay. Hela cells were seeded into 6 well plates at a density of 1000 cells per well. Cells were treated for 24 h. Cells were then treated with and without UCN-01 (100 nM) for 3 h. All drugs were washed out and cells were left to grow for approximately 10 days. Cells were fixed using Acetic acid:methanol:H2O, (10:10:80), dried and stained with 0.4% crystal violet in 20% ethanol. Qualitative images of representative results are presented. For quantification, colonies were solubilized (1% acetic acid, 30% ethanol) and absorbance values at 595 nm were read. Values are expressed as a percentage relative to untreated cells, with untreated cells set to 100%±SD. Experiments were conducted in triplicate, three independent times. Student's two-tailed unpaired t test was conducted for statistics.

Hela cells [8] = assay: Cell viability MTS assay, Hela; conditions: for cell viability, BDM alone: 3.125-200 μM, 48 h continuous
Protocol: (§3) Cell viability and apoptosis assays. Hela cells were seeded into 96 well plates at a density of 1500 cells per well. Cells were treated with BDM (3.125-200 μM) for 24 h. After this time cells were additionally treated either with UCN-01 (100 nM), Chk2 inhibitor (100 nM) or Gö6976 (200 nM) for an additional 24 h. MTS reagent (CellTiter 96® AQueous Proliferation Assay, Promega) was added to each well for 4 h before the absorbance values at 490 nm was read. Experiments were conducted in triplicate, 3 independent times. Data presented are the average absorbance values, relative to control±SD. For apoptosis determination, cells seeded and treated as stated above were stained with Guava Nexin Reagent® (Millipore). Analysis was conducted using the Easycyte module and Cytosoft Software® (Millipore). Experiments were conducted 3 independent times, collecting 2000 events each time. Data shown is the average±SD.

Hela cells [9] = assay: Cell cycle profile by FACS (DNA content), Hela
Protocol: as §2

[10] = test system: Hela cells stably expressing GFP:histone H2B; assay: Time-lapse video microscopy of mitosis
Protocol: Time-lapse video microscopy. Hela cells stably expressing GFP:histone H2B were seeded into 6 well plates and synchronized in S phase using thymidine (2 mM). […] Where appropriate, UCN-01 (100 nM) was added to wells before being supplemented with HEPES (25 mM), layered with mineral oil (Sigma) and placed into a housing chamber which maintained the temperature at 37° C. Using a Nikon TE2000 microscope (Nikon) controlled by MetaMorph software (Molecular Devices), brightfield and fluorescent images were captured every 5 minutes for up to 48 h. Individual movies were analyzed manually and a minimum of 100 cells per treatment scored for the indicated measurements. For montages, selected frames representing different cell morphologies are presented.

Hela cells [11] = assay: Apoptosis assay (Guava Nexin Reagent); conditions: BDM 200 μM followed by Chk1 inhibitor; p<0.01 vs. control
Protocol: as §3

Hela cells [12] = assay: Metaphase spreads
Protocol: Metaphase spreads. Mitotic cells were collected from untreated and bendamustine at 50 μM or 200 μM+UCN-01 (100 nM) treatments. For visualizing, cells were dropped onto a glass slides and stained with DAPI. Mitotic spreads were viewed and imaged using fluorescence microscopy. Images shown are representative of those observed.

Hela cells [13] = assay: Electron microscopy of mitotic chromosomes
Protocol: Electron microscopy. Hela cells were seeded into 6 cm dishes, synchronized with thymidine (2 mM) and treated with BDM 50 μM, 200 μM or gemcitabine (100 μM) for 18 h. Cells treated with UCN-01 (100 μM) for an addition 9 h to obtain mitotic cells were fixed with glutaraldehyde solution (3%, pH 7.4). Samples were prepared for electron microscopy analysis.

SK28 cells [14] = assay: SK28 cell viability (MTS assay); conditions: SK28, concentration-dependent, quadruplicate
Protocol: (§4) Tests were conducted in quadruplicate.

SK28 cells [15] = assay: SK28 clonogenic assay; conditions: SK28, concentration-dependent, quadruplicate
Protocol: as §4

[16] = 50 μM BDM 24 h, then UCN-01 100 nM

Structure (SMILES): Cn1c(CCCC(=O)O)nc2cc(N(CCCl)CCCl)ccc21 [BDM, Bendamustine]
- γ-H2AX staining, TDG−/− MEFs versus wildtype MEFs ([1]; 10 μM BDM, 24 h): increased γ-H2AX staining
- repair of DNA damage, TDG−/− MEFs versus wildtype MEFs ([1]; 48 h continuous treatment): reduced ability to repair the DNA damage
- cell cycle arrest ([2]; 10 μM BDM): induced a G2 arrest
- cell cycle arrest ([2]; 25 μM BDM): S phase arrest
- cell cycle arrest ([2]; 50 μM BDM): induced an S phase arrest
- Chk1 phosphorylation (Ser-345) (Hela cells [3]; 50 μM BDM, 48 h): no signal was observed
- Chk1 phosphorylation (Ser-345) (Hela cells [3]; 200 μM BDM, 48 h): detectable pChk1 was still present
- Chk1 phosphorylation (Ser-345) (Hela cells [3]; 24 h treatment): dose-dependently phosphorylated
- cell cycle arrest ([4]; 50 μM BDM): G2 arrest
- cell cycle arrest ([4]; 200 μM BDM): S phase arrest
- γ-H2AX, RPA and 53BP1 foci (Hela cells [5]; 50 μM BDM 24 h, then 24 h after washout): reduced to levels comparable to untreated cells
- γ-H2AX, RPA and 53BP1 foci (Hela cells [5]; 50 μM BDM, 24 h): accumulated γ-H2AX, RPA and 53BP1 foci
- γ-H2AX, RPA and 53BP1 staining (Hela cells [5]; 50 μM BDM, 48 h continuous): reduced to control cells
- γ-H2AX, RPA and 53BP1 foci (Hela cells [5]; 200 μM BDM 24 h, after drug removal): foci persisted after drug was removed
- γ-H2AX, RPA and 53BP1 foci (Hela cells [5]; 200 μM BDM, 24 h): an increase in γ-H2AX, RPA and 53BP1
- DNA damage foci (Hela cells [5]; 200 μM BDM, 48 h continuous): not reduced
- 53BP1, RPA and γ-H2AX nuclear foci (Hela cells [5]; dose dependence): increased in a dose-dependent manner
- EdU incorporation relative to untreated (100%) (Hela cells [6]; 50 μM BDM): 98.0±4.1%
- EdU incorporation relative to untreated (100%) (Hela cells [6]; 200 μM BDM): 64.7±2.6%
- colony formation relative to control (100%) (Hela cells [7]; 50 μM BDM 24 h): 87.8±11.2%
- reduction in clonogenic survival (Hela cells [7]; 200 uM BDM): 95%
- colony formation relative to control (100%) (Hela cells [7]; 200 μM BDM 24 h): 3.5±1.3%
- cell viability, BDM alone (Hela cells [8]): did not reduce cell viability as compared to control treatment
- cell viability, BDM alone (Hela cells [8]; listed as bendamustine): not particularly effective at killing Hela cells
- cell cycle profile (Hela cells [9]; 50 μM BDM 24 h, then another 24 h with or without BDM): displayed a normal cell cycle profile
- cell cycle arrest (Hela cells [9]; 200 μM BDM, after washout or 48 h continuous): maintained after drug washout, or 48 h continuous treatment
- cell cycle profile (Hela cells [9]; Hela synchronized in G1, 200 μM BDM, 24 h): arrested in S phase
- cell cycle profile (Hela cells [9]; Hela synchronized in G1, 25-100 μM BDM, 24 h): accumulated as 4N DNA content indicating a G2/M delay
- fate of cells forced into mitosis ([10]; 50 μM BDM + Chk1 inhibition): progress through mitosis relatively normally
- percentage of cells entering mitosis ([10]; 50 μM BDM, over 24 h): caused a reduction in the percentage of cells entering mitosis
- mitotic index ([10]; 200 μM BDM): reduced mitotic index
- fate of cells forced into mitosis ([10]; 200 μM BDM + Chk1 inhibition): majority failing to exit and instead die in mitosis
- mitotic figures ([10]; 200 μM BDM + Chk1 inhibition): highly abnormal

Structure (SMILES): Cn1c2ccccc2c2c3c(c4c5ccccc5n(CCC#N)c4c21)CNC3=O [Gö6976]
- percentage of apoptotic cells (Hela cells [11]): exhibited an increase in the percentage of apoptotic cells

Structure (SMILES): CON [MX, methoxyamine]
- γ-H2AX foci, combination with BDM (Hela cells [5]; 50 μM BDM + methoxyamine 6 mM, 48 h): significantly higher levels of γ-H2AX foci than BDM alone

Structure (SMILES): O=c1cc(N2CCOCC2)oc2c(-c3cccc4c3sc3ccccc34)cccc12 [NU7441]
- repair of BDM-induced damage (γ-H2AX) (Hela cells [5]; 50 μM BDM + NU7441 10 μM, 48 h): did not block repair of BDM-induced damage

Structure (SMILES): CN[C@@H]1C[C@H]2O[C@@](C)([C@@H]1OC)n1c3ccccc3c3c4c(c5c6ccccc6n2c5c31)C(=O)N[C@@H]4O [UCN-01]
- chromosome morphology in metaphase spreads (Hela cells [12]; BDM 50 μM + UCN-01): no obvious gross structural defects
- chromosome morphology in metaphase spreads (Hela cells [12]; BDM 200 μM + UCN-01): extremely abnormal
- chromosome ultra-structure (electron microscopy) (Hela cells [13]; BDM 50 μM + UCN-01): intact chromosomes were clearly visualized
- chromosome ultra-structure (electron microscopy) (Hela cells [13]; BDM 200 μM + UCN-01): highly fragmented
- sensitization to killing by BDM (viability) (Hela cells [8]; 200 μM BDM 24 h, then Chk1 inhibitor 24 h): viability was significantly reduced
- sensitization to killing by BDM (Hela cells [8]; BDM up to 100 μM 24 h, then UCN-01 100 nM 24 h): did not sensitize
- cell viability, UCN-01 alone (Hela cells [8]; UCN-01 alone, any of the assays performed): no discernable effects on cell viability
- percentage of apoptotic cells (Hela cells [11]): exhibited an increase in the percentage of apoptotic cells
- effect on BDM-induced arrest [10, 16]: abrogated the arrest
- time to start of mitotic entry after UCN-01 addition [10, 16]: 4 h
- delay at metaphase (average) ([10]; 50 μM BDM + UCN-01, controls 37.5±16.7 minutes): 89 ± 64.7 min

Structure (SMILES): C=CC1=C(C(=O)O)N2C(=O)[C@@H](NC(=O)/C(=N\OCC(=O)O)c3csc(N)n3)[C@H]2SC1 [cefixime, (6R,7R)-7-{[2-(2-amino-1,3-thiazol-4-yl)-2-(carboxymethoxyimino)acetyl]amino}-3-ethenyl-8-oxo-5-thia-1-azabicyclo[4.2.0]oct-2-ene-2-carboxylic acid]
- cell viability (SK28 cells [14]): reduce cell viability
- clonogenic capacity / colony-forming ability (SK28 cells [15]): reduce cell viability and clonogenic capacity; also recorded: reduction of clonogenic capacity

Structure (SMILES): NC(=O)c1ccc2nc(-c3ccc(Oc4ccc(Cl)cc4)cc3)[nH]c2c1 [pharmacological inhibitor of Chk2]
- sensitization to killing by BDM (Hela cells [8]; any BDM concentration (3.125-200 μM), Chk2 inhibitor 100 nM): did not sensitize to killing by any concentration of BDM
